Assays:
HMG-CoA reductase = test: Effects of sterols on HMG-CoA reductase activity in CHO-K1 cells; type: cell-based; details: 4 hours
Procedure: Effects of side chain derivatized 15-oxygenated sterols on HMG-CoA reductase activity in CHO-K1 cells
The effects of the sterols on HMG-CoA reductase activity were determined on CHO-K1 cells. The cells were obtained from the American Type Culture Collection (Rockville, Md.). (3RS)-[3-^14 C]HMG-CoA (56 mCi per mmol) and (3RS)-[2-^3 H]mevalonolactone (176 mCi per mmol) were purchased from Amersham Corporation (Arlington Heights, Ill.). Lux tissue culture plasticware was from Miles Scientific (Elkhart, Ind.). Trypsin was obtained from Gibco Laboratories (Grand Island, N.Y.) and Ham's F12 medium, Proc. Natl. Acad. Sci. U.S.A., 53, 288-293 (1965), and phosphate buffered saline (PBS; KCl, 2.7 mM; KH2 PO4, 1.2 mM; NaCl, 137 mM; and Na2 HPO4, 8.1 mM) were obtained from Irvine Scientific (Irvine, Calif.). Fetal calf serum was purchased from Whittaker M.A. Bioproducts (Elkhart, Ind.).
For cell culture experiments, the sterols and C24 acid were added as ethanolic solutions to Ham's F12 medium supplemented with 5% delipidated fetal calf serum (lipid-deficient medium) and allowed to equilibrate for at least 6 hours at room temperature prior to storage at 4° C. Protein in detergent-solubilized extracts of cultured cells was assayed by the Peterson modification, Anal. Biochem., 83, 346-356, of the method of Lowry et al., J. Biol. Chem, 193, 265-275.
The CHO-K1 cells were maintained in Ham's F12 medium supplemented with 5% fetal calf serum (lipid-rich medium) in a humidified atmosphere of 5% CO2 -95% air at 37° C. Each experiment was initiated by inoculating […] cells into 100-mm dishes containing the lipid-rich medium (10 ml), followed by incubating for 48 hours. The medium was aspirated and, after rinsing the plates with PBS (10 ml), the cells were incubated for 18 hours in lipid-deficient media (10 ml). The cells were then incubated with fresh lipid-deficient media (10 ml) containing various concentrations of the 15-oxygenated sterols (from 0.0 μM to 2.5 μM) for 4 hours. Cells were harvested by scraping, and detergent-solubilized cell preparations were obtained for assay of HMG-CoA reductase activity using the method of Brown, Dana and Goldstein, J. Biol. Chem, 249, 789-796. Replicate assays (n=3) were carried out as described by Pinkerton et al., J. Biol. Chem, 257, 1929-1936, except that the specific activity of (3RS)-[3-^14 C]HMG-CoA was 20,000 dpm per nmol.

[1] = Effects of dietary administration of F7-15-ketosterol to rats: serum sterols; type: in vivo, rats (Sprague-Dawley, male); details: rat
Description: Effects of dietary administration of side chain derivatized 15-oxygenated sterols to rats
Male rats (100-140 g) of the Sprague-Dawley strain were obtained from Harlan Sprague-Dawley (Houston, Tex.) and housed in pairs for 6 days on a light (6:00 AM-6:00 PM)--dark cycle and fed a ground basal diet (Purina Formulab 5008) and water ad libitum. The animals were then divided into groups of 8 animals each, such that the mean values of serum cholesterol and body weight were approximately the same. The animals were then housed individually and were provided diet and water ad libitum. Blood for serum sterol concentrations was obtained at ^~ 8:00 AM from tail vein on days 5 and 9.
The experiment involved administration of 3β-hydroxy-25,26,26,26,27,27,27-heptafluoro-5α-cholest-8(14)-en-15-one (F7 -15-ketosterol) in basal diet as utilized previously in Schroepfer et al., Blochem. Biophys. Res. Commun., 78, 1227-233 (1977). 3β-Hydroxy-25,26,26,26,27,27,27-heptafluoro-5α-cholest-8(14)-en-15-one was administered at levels of 0.025%, 0.05%, 0.075, and 0.10% (by weight) in basal diet. Control rats received basal diet containing no added sterol.
Serum cholesterol was measured by two methods. Day 0 levels were determined using a commercial assay kit ("Single Vial"; Boehringer Mannheim Diagnostics, catalog no. 236691). This methodology could not be applied to the determination of serum cholesterol in serum samples of rats treated with 3β-hydroxy-25,26,26,26,27,27,27-heptafluoro-5α-cholest-8(14)-en-15-one due to the presence of another sterol which also acted as a substrate for cholesterol oxidase. Accordingly, cholesterol levels in serum were determined by gas chromatography (GC). Routine capillary GC analyses of sterols in serum were made on a 0.1 μm Rtx 1701 column (15 m×0.25 mm ID; 14% cyanopropylphenyl, 86% methyl polysiloxane; Restek Corp., Bellefonte, Pa.). Stigmasterol was used as an internal standard. In addition, recovery of sterol after saponification and extraction was monitored through the use of an internal standard of [7(n)-^3 H]cholesteryl oleate. Routine saponification of sample (100 μl) involved treatment with 10% KOH in ethanol (500 μl) followed by extraction with hexane (3×1.5 ml). After evaporation to dryness under nitrogen, the samples were treated with BSTFA-pyridine (1:1, 200 μl) for 1 hour at room temperature under nitrogen. After evaporation to dryness under nitrogen, the silylated material was dissolved in hexane (500 μl) and aliquots (1 μl) were subjected to GC analysis.

Row | Structure (SMILES) | HMG-CoA reductase activity (% of control activity) (HMG-CoA reductase; sterol concentration 0.1 μM) | HMG-CoA reductase activity (% of control activity) (HMG-CoA reductase; sterol concentration 0.25 μM) | HMG-CoA reductase activity (% of control activity) (HMG-CoA reductase; sterol concentration 0.5 μM) | HMG-CoA reductase activity (% of control activity) (HMG-CoA reductase; sterol concentration 1.0 μM) | HMG-CoA reductase activity (% of control activity) (HMG-CoA reductase; sterol concentration 2.5 μM) | Serum Sterols: Cholesterol ([1]; 0.025% in diet, day 5, control 2.60 ± 0.12) | Serum Sterols: Cholesterol ([1]; 0.025% in diet, day 9, control 2.62 ± 0.06) | Serum Sterols: Cholesterol ([1]; 0.050% in diet, day 5, control 2.60 ± 0.12) | Serum Sterols: Cholesterol ([1]; 0.050% in diet, day 9, control 2.62 ± 0.06) | Serum Sterols: Cholesterol ([1]; 0.075% in diet, day 5, control 2.60 ± 0.12) | Serum Sterols: Cholesterol ([1]; 0.075% in diet, day 9, control 2.62 ± 0.06) | Serum Sterols: Cholesterol ([1]; 0.100% in diet, day 5, control 2.60 ± 0.12) | Serum Sterols: Cholesterol ([1]; 0.100% in diet, day 9, control 2.62 ± 0.06)
1 | C[C@H](CCCN(C)C)[C@H]1CC(=O)C2=C3CC[C@H]4C[C@@H](O)CC[C@]4(C)[C@H]3CC[C@@]21C [V, 3β-hydroxy-24-dimethylamino-5α-chol-8(14)-en-15-one] | 87.1 % of control activity | 85.4 % of control activity | 73.3 % of control activity | 53.5 % of control activity | 35.0 % of control activity |  |  |  |  |  |  |  | 
2 | CC(C)C(O)CC[C@@H](C)[C@H]1CC(=O)C2=C3CC[C@H]4C[C@@H](O)CC[C@]4(C)[C@H]3CC[C@@]21C (stereo partly drawn) [IV, 3β,24-dihydroxy-5α-cholest-8(14)-en-15-one] | 63.4 % of control activity | 33.5 % of control activity | 32.2 % of control activity | 34.2 % of control activity | 21.5 % of control activity |  |  |  |  |  |  |  | 
3 | C[C@H](CCCC(C)(C)O)[C@H]1CC(=O)C2=C3CC[C@H]4C[C@@H](O)CC[C@]4(C)[C@H]3CC[C@@]21C [III, 3β,25-dihydroxy-5α-cholest-8(14)-en-15-one] | 66.4 % of control activity | 56.2 % of control activity | 50.2 % of control activity | 34.8 % of control activity | 23.7 % of control activity |  |  |  |  |  |  |  | 
4 | C[C@H](CCCC(F)(C(F)(F)F)C(F)(F)F)[C@H]1CC(=O)C2=C3CC[C@H]4C[C@@H](O)CC[C@]4(C)[C@H]3CC[C@@]21C [VI, 3β-hydroxy-25,26,26,26,27,27,27-heptafluoro-5α-cholest-8(14)-en-15-one] | 68.3 % of control activity | 49.1 % of control activity | 35.6 % of control activity | 29.0 % of control activity | 22.2 % of control activity | 2.02 ± 0.12 mM | 2.10 ± 0.10 mM | 2.06 ± 0.07 mM | 1.83 ± 0.07 mM | 1.76 ± 0.05 mM | 1.76 ± 0.12 mM | 1.97 ± 0.09 mM | 1.90 ± 0.10 mM
5 | C[C@H](CCC(=O)O)[C@H]1CC(=O)C2=C3CC[C@H]4C[C@@H](O)CC[C@]4(C)[C@H]3CC[C@@]21C [I, 3β-hydroxy-15-keto-5α-chol-8(14)-en-24-oic acid] | 88.5 % of control activity | 77.3 % of control activity | 69.9 % of control activity | 65.0 % of control activity | 45.6 % of control activity |  |  |  |  |  |  |  | 
6 | CC(C)=CCC[C@@H](C)[C@H]1CC(=O)C2=C3CC[C@H]4C[C@@H](O)CC[C@]4(C)[C@H]3CC[C@@]21C [II, 3β-hydroxy-5α-cholesta-8(14),24-dien-15-one] | 60.5 % of control activity | 67.0 % of control activity | 51.1 % of control activity | 40.0 % of control activity | 35.2 % of control activity |  |  |  |  |  |  |  | 
